# Assay results published in US20250025440A1, “COMPOSITIONS AND METHODS FOR MANAGEMENT OF HUMAN PAPILLOMA VIRUS-ASSOCIATED CANCERS” (LOMA LINDA UNIVERSITY, priority 2021, published 2025).
# Entries after “also recorded” stand apart in the source; their conditions may differ.
# Assays:
# [1] = target: T1, full-length HPV E6 binding to human Caspase 8 (Human papillomavirus type 16, UniProt P03126); settings: SAR analogs
# T1 construct: made in house; host or cells: E. coli
# Method: Three structurally diverse libraries (Prestwick library, Microsource Spectrum library and an in-house collection at Kansas University; see Table 1) were screened for the ability of compounds to inhibit the binding of full-length HPV E6 to human Caspase 8 using a previously optimized AlphaScreen™ protocol.
# The compounds were diluted to a working concentration in DMSO and screened at a single-point final concentration of 10 μM with no replicates. Briefly, 75 nL of each compound was transferred and added to wells of the destination 384-well plate using the Echo dispenser to 4 μL of blocking solution. 4 μL of 800 nM GST-E6 and 4 μL of His6-Caspase 8 were added and pre-incubated at room temperature for 60 minutes. 8 μL of the donor and acceptor bead mixture (final concentration of 20 μg/ml) was then added. The plates were sealed and incubated for 4 hours at room temperature before the plates were read using the Envision™ Multi-Label plate reader (Perkin Elmer Inc.). […] A 10-point serial dilution of these compounds was done for dose-dependency reconfirmation. Dose response inhibition curves were constructed and IC50 calculated using GraphPad Prism using four parameter non-linear regression analysis.
# The first counter-screen assay was based using the GST-His6 fusion peptide as the E6-binding partner instead of GST-E6-His6-Caspase 8. Hit candidate compounds from the primary screen were prepared using a 6-point serial dilution. Using an Echo dispenser, compounds were transferred to plates containing 4 μL of blocking buffer. 8 μL of 5 nM GST-His6 peptide substrate was then added. The mixture was pre-incubated at room temperature for 60 minutes. Glutathione donor and nickel chelate acceptor beads (final concentration 20 μg/mL) were added and incubated for another 60 minutes at room temperature. Dose-dependency of the compounds using GST-E6-His6-Caspase 8 was performed in parallel using the same protocol as in the primary screen. The signals were then read using the Envision™ plate reader.
# (§1) Using the SciFinder and Zinc15 databases, several gambogic acid structural analogs were identified and selected. The 8 analogs were obtained as follow: gambogenic amide (Enzo Life Sciences), gambogenic acid (Selleckchem), morellic acid (Aobious), 30-hydroxy gambogic acid (Quality Phytochemicals, LLC), acetyl gambogic acid (Microsource), and gambogin, neogambogic acid and isomorellinol (MolPort Natural Products). Additional gambogic acid was purchased from Tocris. The interactions of the analogues with E6-caspase 8 was tested using AlphaScreen™ technology using the same protocol as with the primary screen, and were compared to the parent compound. The effect on cell viability was also similarly done in HPV^+ and HPV^− cell lines via the MTT assay (see below) and potency was determined using GraphPad IC50 curve fitting.
# [2] = tested on: SCC104 (HPV+ HNSCC cell line); experiment: MTT cell viability of gambogic acid analogs; format: cell-based; settings: SCC104, 24 hr
# Method: Next, the analogs were evaluated for functional activity using the HPV^+ HNSCC cell line, SCC104, in the MTT assay as described previously to determine whether similar findings would be observed as in the in vitro AlphaScreen™ analysis. With one exception, the patterns were similar to the AlphaScreen™ data, but the differences were relatively more pronounced in the cell-based screen (FIG. 6B). […] Based on these findings, 30-hydroxygambogic acid (GA-OH) was selected as a candidate for more extensive functional studies.
# as §1
# All working concentrations were diluted in PBS to the desired concentration before use. To test the effect of gambogic acid and/or its derivatives on cell viability, all cell lines were seeded at 2×10^4 per well in 96-well plates and allowed to adhere overnight. Various concentrations of the analogues were added and the cells incubated at 37° C. for 24 hr. Viability was then measured using the MTT assay, performed as described previously. All experiments were repeated at least three times (three biological replicates, carried out on different days). Data presented are from a representative experiment. Cell viability and potency were assessed from % inhibition relative to the vehicle control, and IC50 dose curves were generated using GraphPad Prism.
# [3] = tested on: HPV- (SCC19, SCC29) and HPV+ (SCC47, SCC104, SCC152) HNSCC cell lines; experiment: Sensitization of HNSCC cell lines to photon radiation; format: cell-based; settings: radiation 0-4Gy followed by inhibitor; DER10
# Method: The dose enhancement ratio for 10% survival (DER10) was calculated as follows: DER10=(Dose correlated with 10% survival fraction in radiation-treated cells)/(Dose correlated with 10% survival fraction in radiation and inhibitor treated cells).
# CCDP, Cetuximab, and GA-OH were evaluated for their ability to sensitize HNSCC cell lines to photon radiation.
# Colonies were counted after 14-21 days and normalized to vehicle control and survival analysis was performed.
# Sensitization of an additional HPV^+ cell line to radiation by CDDP, Cetuximab and GA-OH was evaluated.
# SCC47 (HPV+) = experiment: Cell cycle analysis after irradiation (PI flow cytometry); format: cell-based; settings: SCC47, radiation (4Gy) followed by GA-OH, 24 hours
# Method: Cells were treated with radiation (4Gy) followed by GA-OH before cell cycle analysis was performed using propidium iodide (PI) flow cytometry assay after 24 hours. FIGS. 15A-15B are graphical representations of the cell cycle analysis of SCC47 and SCC19 cell lines after irradiation and followed by treatment with control or with GA-OH, as measured by flow cytometry assays after 24 hours. In both cell lines, G2-M is the most affected stage of cell cycle and there is increase in G2-M arrested cells. The HPV^+ cell line—SCC47 has a higher proportion of cells that are still arrested in G2-M phase after 24 hours compared to the HPV^− cell line—SCC19. FIGS. 16A-16B are graphical representations of the fraction of G2-M arrested cells in SCC47 and SCC19 lines after irradiation and followed by treatment with control or with GA-OH, as measured by flow cytometry assays after 24 hours. […]
# Kinetics of G2-M arrest when SCC47 and SCC19 are irradiated with or without GA-OH. […] FIGS. 17A-17B are graphical representations of the kinetics of G2-M arrest when SCC47 and SCC19 are irradiated and followed by treatment with control or with GA-OH, as measured by flow cytometry assays after 24 hours. […] Apoptosis analysis of SCC47 and SCC19 was performed after irradiation and followed by treatment with control or with GA-OH, as measured by flow cytometry assays after 24 hours. […]
# SCC47 and SCC19 = experiment: Apoptosis analysis after irradiation (flow cytometry); format: cell-based
# Method: Kinetics of G2-M arrest when SCC47 and SCC19 are irradiated with or without GA-OH. Cells were treated with radiation (4Gy) followed by GA-OH before cell cycle analysis was performed using […] flow cytometry assay after 24 hours. FIGS. 17A-17B are graphical representations of the kinetics of G2-M arrest when SCC47 and SCC19 are irradiated and followed by treatment with control or with GA-OH, as measured by flow cytometry assays after 24 hours. Cells are arrested to the same extent in the short term (first 12 hours) but over extended periods, SCC19 cells exit the G2-M stage quicker. In the HPV^+ but not HPV^− line, the addition of GA-OH to the radiation protocol delays the exit from the exit the G2-M stage at 24 hours as compared to radiation alone. Apoptosis analysis of SCC47 and SCC19 was performed after irradiation and followed by treatment with control or with GA-OH, as measured by flow cytometry assays after 24 hours. FIGS. 18A-18B are graphical representations of the apoptotic analysis of SCC47 and SCC19 after irradiation with or without GA-OH after 24 hours, as measured by flow cytometry assays. Radiation induces minimal apoptosis on its own.
# T1 sequence (P03126 whole entry): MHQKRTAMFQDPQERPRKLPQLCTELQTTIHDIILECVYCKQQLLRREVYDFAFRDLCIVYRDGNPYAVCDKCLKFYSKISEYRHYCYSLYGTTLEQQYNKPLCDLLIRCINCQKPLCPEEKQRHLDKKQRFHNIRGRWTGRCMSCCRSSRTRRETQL
substance,measurement,setting,value
30-hydroxygambogic acid [GA-OH],inhibition of E6-caspase 8 binding relative to GA,[1],more effectively inhibited E6 binding to caspase 8 than any of the other analogs or the parent compound
same,potency in MTT assay,[2],highest potency of all analogs
same,sensitization to photon radiation,[3],most sensitization in HPV+ cell lines; also recorded: less than that of CDDP but greater than cetuximab
same,G2-M arrest,SCC47 (HPV+),increased arrest at 24 hours as compared to radiation alone
same,"apoptosis, agent alone",SCC47 and SCC19; 24 hours,appreciable apoptosis
same,"apoptosis, combination with radiation","SCC47 and SCC19; SCC47 compared to SCC19, 24 hours",greater apoptosis and at a greater rate
